# Reference: ChEMBL document CHEMBL4825659, “Terpenoids from Chinese Liverworts Scapania spp” (J Nat Prod, 2021)
# The source made the active and inactive calls. The calls are words filed in the database; no cut-off is given here.
# Assays:
# [1] = target: NAD(P)H dehydrogenase [quinone] 1 (Mus musculus) (UniProt Q64669); assay: Induction of quinone reductase activity in mouse Hepa1c1c7 cells at 50 uM incubated for 24 hrs by MTT based assay relative to control; type: cell-based
# [2] = Cytotoxicity against mouse Hepa1c1c7 cells incubated for 24 hrs by MTT based assay; type: functional, cell-based; conditions: Hepa-1c1c7, 24 h
# Chain of NAD(P)H dehydrogenase [quinone] 1 (Mus musculus) (Q64669 whole entry): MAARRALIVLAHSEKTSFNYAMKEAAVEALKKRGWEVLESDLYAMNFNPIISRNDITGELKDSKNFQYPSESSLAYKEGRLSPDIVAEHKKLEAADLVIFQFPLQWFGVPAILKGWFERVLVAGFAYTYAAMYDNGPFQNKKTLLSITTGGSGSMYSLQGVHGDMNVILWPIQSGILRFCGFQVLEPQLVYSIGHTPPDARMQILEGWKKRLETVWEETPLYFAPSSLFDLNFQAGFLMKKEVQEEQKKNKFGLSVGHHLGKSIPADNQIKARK
Activity [1],Activity ([1]; filed as activator),Structure (SMILES),IC50 [2]
inactive,,C[C@H]1C[C@H]2O[C@@]3(C)[C@@H](O)CCC45O[C@@](C6=CC(=O)OC6O)(C[C@]14C)OC[C@@]253 (some centres undefined),> 50 µM
,Active,CO[C@]1(C2=CC(=O)OC2O)C[C@]2(C)[C@@H](C)C[C@@H](OC(C)=O)[C@]3(COC(C)=O)C2(CC[C@@H]2O[C@@]23C)O1 (some centres undefined),> 50 µM
inactive,,C[C@H]1C[C@H]2O[C@@]3(C)[C@@H](O)CCC45O[C@@](c6ccoc6)(C[C@]14C)OC[C@@]253,> 50 µM
,Active,CC(=O)O[C@@H]1C[C@H](C)[C@@]2(C)C[C@@]3(C4=CC(O)OC4=O)OC[C@]14C2(CC[C@@H]1O[C@@]14C)O3 (some centres undefined),> 50 µM
,Active,CC(=O)O[C@@H]1C[C@H](C)[C@@]2(C)C[C@@]3(C4=CC(=O)OC4O)OC[C@]14C2(CC[C@@H]1O[C@@]14C)O3 (some centres undefined),> 50 µM
inactive,,CC(=O)O[C@@H]1C[C@H](C)[C@@]2(C)C[C@@]3(c4ccoc4)OC[C@]14C2(CC[C@@H]1O[C@@]14C)O3,> 50 µM
inactive,,CC1(C)CC[C@@H](O)[C@]2(C)[C@@H]1C(=O)C[C@@]13C[C@H]4[C@@H](C(=O)[C@H]12)[C@]4(C)C3,> 50 µM
